According to US20230382909A1, “BICYCLIC COMPOUNDS” (Aligos Therapeutics, Inc., priority 2022, published 2023):

Legend:
HBV = assay: HBV-DNA antiviral assay using HepG2.117 cells; format: cell-based, HBV genotype D; settings: Hepatitis B virus, HepG2.117, 72 h
Protocol: (§1) The following assay procedure describes the HBV antiviral assay, using HepG2.117 cells, which carry a stably integrated genotype D HBV genome under the control of a Tet-off promoter, and intracellular HBV DNA quantification as endpoint. Cell viability is assessed in parallel by measuring the intracellular ATP content using CellTiter-Glo 2.0 (Promega).
On day 0, HepG2.117 cells (which are maintained in routine cell culture with doxycycline present in the medium at a final concentration of 1 μg/mL) are seeded in 96-well plates (white with clear bottom) at a density of 2.0×10^4 cells/well (0.1 mL/well) in medium without doxycycline to induce pgRNA transcription and subsequent formation of HBV particles. The cells are incubated at 37° C. and 5% CO2.
(§2) On day 1, medium is removed from each well, the test articles are diluted in culture medium without doxcycyline and 100 μL was added to cell culture wells (9 concentrations, 4-fold dilution). For each plate, 6 untreated (merely DMSO) wells are included. The final concentration of DMSO in the culture medium is 2%. Each plate is prepared in duplicate (one for HBV DNA extraction, one for CellTiter-Glo 2.0 measurement). The cells are incubated at 37° C. and 5% CO2 for 3 days.
(§3) On day 4, cell viability is assessed using CellTiter-Glo 2.0 and cell lysates are prepared for HBV DNA extraction and subsequent quantification by qPCR.
HBV DNA Quantification by qPCR
Medium is removed from each well and 100 μL of 0.33% NP-40 in H2O was added to each well. Plates are sealed, incubated at 4° C. for 5 mins, vortexed extensively and centrifuged briefly. Next, 35 μL of lysate is added to 65 μL QuickExtract DNA Extraction Solution (Epicentre) in a PCR plate for each well. PCR plate is incubated at 65° C. for 6 mins, 98° C. for 2 mins and finally cooled to 4° C. HBV DNA is then quantified by qPCR with HBV-specific primers and probes as specified in Table 3 using the Bio-Rad SSOAdvanced Universal Probes Supermix on a CFX96 machine (Bio-Rad). The PCR cycle program consisted of 95° C. for 3 mins, followed by 40 cycles at 95° C. for 10 sec and 60° C. for 30 sec.
A DNA standard is prepared by dilution of an IDT gBlock corresponding to the amplicon with concentrations ranging from 10^2 to 10^8 copies/input (i.e., per 4 μL) and used to generate a standard curve by plotting Cq values vs. HBV DNA standard concentration. The quantity of HBV DNA in each sample is determined by interpolating from the standard curve.
(§4) Cell viability is calculated as follows: % Cell viability=(luminescence value of test sample)/(average luminescence value of 2% DMSO control)×100%. HBV DNA inhibition was calculated as follows: 100−(HBV DNA copy number of test sample)/(average HBV DNA copy number of 2% DMSO control)×100%. No normalization to entecavir is required due to the excellent dynamic window of this assay. The CC50, EC50 and EC9o values were determined by dose-response curves fitted using non-linear regression.

[1] = Cell viability by CellTiter-Glo 2.0 (intracellular ATP content) in HepG2.117 cells; format: cell-based; settings: human, CellTiter-Glo 2.0, 3 days incubation
Protocol: as §1, §2, §3
Using the other plates, the cell viability is quantified by CellTiter-Glo 2.0 according to the manufacturer's manual. In brief, 100 μL of reagent solution is added to the culture plates and shaken for 2′. The plates are incubated at rt for 10 min and luminescence signal is subsequently measured on a VarioSkan Lux (ThermoFisher) plate reader.
as §4

SMILES	EC50 (HBV) [µM]	CC50 at 3 days [1] [µM]
Cc1cc(C)n(-c2nc3c(c(=O)n2-c2ccc(-c4cnn(C)c4)cn2)C[C@@H](C)N(C(=O)c2ccc(Br)c(C(F)(F)F)c2)C3)n1 [Compound 16, (6R)-7-[4-bromo-3-(trifluoromethyl)benzoyl]-2-(3,5-dimethylpyrazol-1-yl)-6-methyl-3-[5-(1-methylpyrazol-4-yl)-2-pyridyl]-6,8-dihydro-5H-pyrido[3,4-d]pyrimidin-4-one]	< 0.05	> 0.5
Cc1cc(C)n(-c2nc3c(c(=O)n2-c2cc(Cl)c4c(c2)ncn4C)C[C@@H](C)N(C(=O)c2ccc(Br)c(C(F)(F)F)c2)C3)n1 [Compound 17, (6R)-7-[4-bromo-3-(trifluoromethyl)benzoyl]-3-(7-chloro-1-methyl-benzimidazol-5-yl)-2-(3,5-dimethylpyrazol-1-yl)-6-methyl-6,8-dihydro-5H-pyrido[3,4-d]pyrimidin-4-one]	< 0.05	> 0.5
CNC(=O)c1ccc(-n2c(-n3nc(C)cc3C)nc3c(c2=O)C[C@@H](C)N(C(=O)c2ccc(Br)c(C(F)(F)F)c2)C3)cn1 [Compound 18, 5-[(6R)-7-[4-bromo-3-(trifluoromethyl)benzoyl]-2-(3,5-dimethylpyrazol-1-yl)-6-methyl-4-oxo-6,8-dihydro-5H-pyrido[3,4-d]pyrimidin-3-yl]-N-methyl-pyridine-2-carboxamide]	< 0.05	> 0.5
Cc1cc(C)n(-c2nc3c(c(=O)n2-c2cnc4c(c2)ncn4C)C[C@@H](C)N(C(=O)c2ccc(Br)c(C(F)(F)F)c2)C3)n1 [Compound 19, (6R)-7-[4-bromo-3-(trifluoromethyl)benzoyl]-2-(3,5-dimethylpyrazol-1-yl)-6-methyl-3-(3-methylimidazo[4,5-b]pyridin-6-yl)-6,8-dihydro-5H-pyrido[3,4-d]pyrimidin-4-one]	< 0.05	> 0.5
Cc1cc(C)n(-c2nc3c(c(=O)n2-c2cnc4c(ncn4C)n2)C[C@@H](C)N(C(=O)c2ccc(Br)c(C(F)(F)F)c2)C3)n1 [Compound 20, (6R)-7-[4-bromo-3-(trifluoromethyl)benzoyl]-2-(3,5-dimethylpyrazol-1-yl)-6-methyl-3-(1-methylimidazo[4,5-b]pyrazin-5-yl)-6,8-dihydro-5H-pyrido[3,4-d]pyrimidin-4-one]	< 0.05	> 0.5
Cc1cc(C)n(-c2nc3c(c(=O)n2-c2cc(F)c4ncn(C)c4c2)C[C@@H](C)N(C(=O)c2ccc(Br)c(C(F)(F)F)c2)C3)n1 [Compound 21, (6R)-7-[4-bromo-3-(trifluoromethyl)benzoyl]-2-(3,5-dimethylpyrazol-1-yl)-3-(7-fluoro-3-methyl-benzimidazol-5-yl)-6-methyl-6,8-dihydro-5H-pyrido[3,4-d]pyrimidin-4-one]	< 0.05	> 0.5
Cc1cc(C)n(-c2nc3c(c(=O)n2-c2cc(F)c4c(c2)ncn4C)C[C@@H](C)N(C(=O)c2ccc(Br)c(C(F)(F)F)c2)C3)n1 [Compound 22, (6R)-7-[4-bromo-3-(trifluoromethyl)benzoyl]-2-(3,5-dimethylpyrazol-1-yl)-3-(7-fluoro-1-methyl-benzimidazol-5-yl)-6-methyl-6,8-dihydro-5H-pyrido[3,4-d]pyrimidin-4-one]	< 0.05	> 0.5
Cc1cc(C)n(-c2nc3c(c(=O)n2-c2ccc4c(c2)ncn4CC(F)F)C[C@@H](C)N(C(=O)c2ccc(Br)c(C(F)(F)F)c2)C3)n1 [Compound 23, (6R)-7-[4-bromo-3-(trifluoromethyl)benzoyl]-3-[1-(2,2-difluoroethyl)benzimidazol-5-yl]-2-(3,5-dimethylpyrazol-1-yl)-6-methyl-6,8-dihydro-5H-pyrido[3,4-d]pyrimidin-4-one]	< 0.05	> 0.5
CNC(=O)c1ccc(-n2c(-n3nc(C)cc3C)nc3c(c2=O)C[C@@H](C)N(C(=O)c2ccc(Br)c(C(F)(F)F)c2)C3)cc1N [Compound 24, 2-amino-4-[(6R)-7-[4-bromo-3-(trifluoromethyl)benzoyl]-2-(3,5-dimethylpyrazol-1-yl)-6-methyl-4-oxo-6,8-dihydro-5H-pyrido[3,4-d]pyrimidin-3-yl]-N-methyl-benzamide]	< 0.05	> 0.5
Cc1cc(C)n(-c2nc3c(c(=O)n2-c2ccc(NC(C)C)nc2)C[C@@H](C)N(C(=O)c2ccc(Br)c(C(F)(F)F)c2)C3)n1 [Compound 25, (6R)-7-[4-bromo-3-(trifluoromethyl)benzoyl]-2-(3,5-dimethylpyrazol-1-yl)-3-[6-(isopropylamino)-3-pyridyl]-6-methyl-6,8-dihydro-5H-pyrido[3,4-d]pyrimidin-4-one]	< 0.05	> 0.5
Cc1cc(C)n(-c2nc3c(c(=O)n2-c2cc(C)c4c(c2)ncn4C)C[C@@H](C)N(C(=O)c2ccc(Br)c(C(F)(F)F)c2)C3)n1 [Compound 26, (6R)-7-[4-bromo-3-(trifluoromethyl)benzoyl]-3-(1,7-dimethylbenzimidazol-5-yl)-2-(3,5-dimethylpyrazol-1-yl)-6-methyl-6,8-dihydro-5H-pyrido[3,4-d]pyrimidin-4-one]	< 0.05	> 0.5
Cc1cc(C)n(-c2nc3c(c(=O)n2-c2ccc(N4CCOCC4)nc2)C[C@@H](C)N(C(=O)c2ccc(Br)c(C(F)(F)F)c2)C3)n1 [Compound 27, (6R)-7-[4-bromo-3-(trifluoromethyl)benzoyl]-2-(3,5-dimethylpyrazol-1-yl)-6-methyl-3-(6-morpholino-3-pyridyl)-6,8-dihydro-5H-pyrido[3,4-d]pyrimidin-4-one]	< 0.05	> 0.5
Cc1cc(C)n(-c2nc3c(c(=O)n2-c2ccc(OC[C@H](C)O)nc2)C[C@@H](C)N(C(=O)c2ccc(Br)c(C(F)(F)F)c2)C3)n1 [Compound 28, (6R)-7-[4-bromo-3-(trifluoromethyl)benzoyl]-2-(3,5-dimethylpyrazol-1-yl)-3-[6-[(2S)-2-hydroxypropoxy]-3-pyridyl]-6-methyl-6,8-dihydro-5H-pyrido[3,4-d]pyrimidin-4-one]	< 0.05	> 0.5
Cc1cc(C)n(-c2nc3c(c(=O)n2-c2ccc(NC[C@H](C)O)nc2)C[C@@H](C)N(C(=O)c2ccc(Br)c(C(F)(F)F)c2)C3)n1 [Compound 29, (6R)-7-[4-bromo-3-(trifluoromethyl)benzoyl]-2-(3,5-dimethylpyrazol-1-yl)-3-[6-[[(2S)-2-hydroxypropyl]amino]-3-pyridyl]-6-methyl-6,8-dihydro-5H-pyrido[3,4-d]pyrimidin-4-one]	< 0.05	> 0.5
Cc1cc(C)n(-c2nc3c(c(=O)n2-c2ccc(NC[C@@H](O)CO)nc2)C[C@@H](C)N(C(=O)c2ccc(Br)c(C(F)(F)F)c2)C3)n1 [Compound 30, (6R)-7-[4-bromo-3-(trifluoromethyl)benzoyl]-3-[6-[[(2R)-2,3-dihydroxypropyl]amino]-3-pyridyl]-2-(3,5-dimethylpyrazol-1-yl)-6-methyl-6,8-dihydro-5H-pyrido[3,4-d]pyrimidin-4-one]	0.05 to 0.5	> 0.5
Cc1cc(C)n(-c2nc3c(c(=O)n2-c2ccc(NC[C@H](O)CO)nc2)C[C@@H](C)N(C(=O)c2ccc(Br)c(C(F)(F)F)c2)C3)n1 [Compound 31, (6R)-7-[4-bromo-3-(trifluoromethyl)benzoyl]-3-[6-[[(2S)-2,3-dihydroxypropyl]amino]-3-pyridyl]-2-(3,5-dimethylpyrazol-1-yl)-6-methyl-6,8-dihydro-5H-pyrido[3,4-d]pyrimidin-4-one]	0.05 to 0.5	> 0.5
Cc1cc(C)n(-c2nc3c(c(=O)n2-c2ccc(N4CC(O)C4)nc2)C[C@@H](C)N(C(=O)c2ccc(Br)c(C(F)(F)F)c2)C3)n1 [Compound 32, (6R)-7-[4-bromo-3-(trifluoromethyl)benzoyl]-2-(3,5-dimethylpyrazol-1-yl)-3-[6-(3-hydroxyazetidin-1-yl)-3-pyridyl]-6-methyl-6,8-dihydro-5H-pyrido[3,4-d]pyrimidin-4-one]	< 0.05	> 0.5
